Test results as given in patent publication US8530434B2, “Nitroxide free radical synergized antineoplastic agents” (The Trustees of California State University, priority 2006, dated 2013).
“Also recorded” adds a separate entry of the source.

Key:
[1] = test system: short single strand DNA units comprising of 3′-ATCGT-5′; assay: 1H and 31P NMR study of interaction with short single strand DNA; assay type: binding; details: 1:1 molar ratio with DNA in DMSO-d6, 600 MHz NMR
Excerpt: (§1) We did the ^1H and ^31P NMR experiments at a 600 MHz NMR spectrometer for all three samples.

[2] = Solubility in D2O (sample preparation for NMR)
Excerpt: as §1

[3] = test system: MCF-7, human breast cancer cells and KB, human liver cancer cells; assay: LDH measurement of cytotoxicity; details: for % cytotoxicity: LDH assay, 72 hours incubation, same conditions and same concentrations, rank among the four treatments, cell line not specified
Protocol: MCF-7, human breast cancer cells and KB, human liver cancer cells were maintained in an RPMI 1640 medium, which was supplemented with 10% (v/v) heat-inactivated FBS and 1% (v/v) penicillin-streptomycin (100 U/mL penicillin G and 100 μg/mL streptomycin). The cells were incubated and then allowed to grow into a monolayer at a Petri dish at 37° C. in 5% CO2 and 90% relative humidity. The cells were detached by trypsinisation. Specifically, to detach the monolayer of cells, the medium was removed from the cell culture dish and the cells were washed by PBS buffer solution. Then 1 mL of the enzyme of trypsin was transferred to the cell dish and then the dish was incubated for 3 min. After the incubation, we transferred 4 mL of the RPMI 1640 medium to the cell dish and pipetted the cell suspension up and down to mix them well. The cell suspension was examined by inverted phase contrast microscope to make sure cells were separated into a single cell suspension. We transferred the cell suspension to a 10 mL-tube and centrifuged it to separate cell pellet from the medium. The cells were washed twice in the RPMI 1640 medium by centrifugation at 300×g for 5 min, and then the washed cells were re-suspended in 10 mL of medium. Cell number and viability were determined by using a dye of trypan blue, a special counting chamber, the hemocytometer and microscope. The cell density was calculated by the formula, cell concentration=(N1+N2+N3+N4+N5)×4×10^3 cells/mL, where N1 to N5 denote the counting numbers in the chamber. The cell suspension was diluted to a final concentration of 100,000 cells/mL in the RPMI 1640 medium.
The cells were initially seeded in a 96-well plate with a cell density of 10,000 cells per well by transferring 100 μL of 100,000 cells/mL suspension to each well using a multi-pipette. The 96-well plate was incubated for 24 hours at 37° C. in a humidified, 5% CO2 atmosphere. After incubation of 24 h, the growth medium was removed and replaced with 100 μL of fresh medium with different concentrations of drugs in 3 repeats.
Performed serial two-fold dilution from Row H to Row A. Use extra column as the negative control containing 100 μL of the medium and cells only. Before the drug solutions were administered, removed the growth medium from each well and then replace 100 μL of each drug solution. Each concentration had 3 repeats. Incubate the plate for 72 hours.
10 μl of Lysis Solution was added from row A to H, and incubated for 45 minutes in a humidified chamber at 37° C., under 5% CO2.
50 μl supernatant was transferred from all wells to a fresh 96-well flat bottom enzymatic assay plate. […] 50 μl Stop Solution was added to each well, and the absorbances were recorded at a wavelength of 490 nm within one hour after adding the stop solution.

CC1(C)CC(OC(=O)CCCc2ccc(N(CCCl)CCCl)cc2)CC(C)(C)N1[O] [chlorambucil-TEMPOL adduct]
interaction with DNA (changes of 1H and 31P NMR spectra) [1]: interact with the DNA collaboratively | solubility in D2O [2]: weakly soluble | % cytotoxicity [3]: the most % cytotoxicity | potency compared with co-administration of the two drugs ([3]; summary statement): higher potency than mere co-administration of the two drugs

O=C(O)CCCc1ccc(N(CCCl)CCCl)cc1 [chlorambucil]
interaction with DNA (changes of 1H and 31P NMR spectra) [1]: interaction of the alkylating agent with DNA | solubility in D2O [2]: weakly soluble | % cytotoxicity [3]: the third

CC1(C)CC(O)CC(C)(C)N1[O] [TEMPOL, 4-hydroxy-2,2,6,6-tetramethylpiperidine-N-oxyl]
interaction with DNA (changes of 1H and 31P NMR spectra) [1]: interacts with DNA | % cytotoxicity [3]: the least; also recorded: very low % cytotoxicity
